Laboratory results: patent publication EP1673354B1, “ARYLINDENOPYRIDINES AND ARYLINDENOPYRIMIDINES AND THEIR USE AS ADENOSINE A2A RECEPTOR ANTAGONISTS” (Ortho-McNeil Pharmaceutical, Inc., priority 2003, dated 2005)
Where two headings read alike, the source gives them in different places.

Key:
[1] = target: T1, human A2a adenosine receptor (Homo sapiens, UniProt P29274); assay: Ligand binding assay for adenosine A2a receptor ([3H]CGS21680, HEK293 plasma membrane)
T1 construct: purchased PerkinElmer RB-HA2a; host or cells: HEK293 cell plasma membrane
Method: Ligand Binding Assay for Adenosine A2a Receptor
Ligand binding assay of adenosine A2a receptor was performed using plasma membrane of HEK293 cells containing human A2a adenosine receptor (PerkinElmer, RB-HA2a) and radioligand [^3H]CGS21680 (PerkinElmer, NET1021). Assay was set up in 96-well polypropylene plate in total volume of 200 µl by sequentially adding 20 µL1:20 diluted membrane, 130 µLassay buffer (50 mM Tris·HCl, pH7.4 10 mM MgCl2, 1 mM EDTA) containing [^3H] […] Nonspecific binding was determined by […] NECA. Reaction was carried out at room temperature for 2 hours before filtering through 96-well GF/C filter plate pre-soaked in 50 mM Tris·HCl, pH7.4 containing 0.3% polyethylenimine. Plates were then washed 5 times with cold 50 mM Tris·HCl, pH7.4, dried and sealed at the bottom. Microscintillation fluid 30 µl was added to each well and the top sealed. Plates were counted on Packard Topcount for [^3H]. Data was analyzed in Microsoft Excel and GraphPad Prism programs.

[2] = target: T2, human adenosine A2a receptors (Homo sapiens, UniProt P29274); assay: Adenosine A2a receptor functional assay, antagonist mode (cAMP-inducible beta-galactosidase reporter, 50 nM NECA); type: cell-based; details: CHO-K1 cells, read-out: Ki (nM) A2a antagonist function
T2 construct: expressed in transfected cells; host or cells: CHO-K1 cells with cAMP-inducible beta-galactosidase reporter gene
Method: Adenosine A2a Receptor Functional Assay
CHO-K1 cells overexpressing human adenosine A2a receptors and containing cAMP-inducible beta-galactosidase reporter gene were seeded at 40-50K/well into 96-well tissue culture plates and cultured for two days. On assay day, cells were washed once with 200 µL assay medium (F-12 nutrient mixture/0.1 % BSA). For agonist assay, adenosine A2a receptor agonist NECA was subsequently added and cell incubated at 37°C, 5% CO2 for 5 hrs before stopping reaction. In the case of antagonist assay, cells were incubated with antagonists for 5 minutes at R.T. followed by addition of 50 nM NECA. Cells were then incubated at 37°C, 5% CO2 for 5 hrs before stopping experiments by washing cells with PBS twice. 50 µL 1X lysis buffer (Promega, 5X stock solution, needs to be diluted to 1X before use) was added to each well and plates frozen at -20°C. For β-galactosidase enzyme colorimetric assay, plates were thawed out at room temperature and 50 µL 2X assay buffer (Promega) added to each well. Color was allowed to develop at 37°C for 1 h or until reasonable signal appeared. Reaction was then stopped with 150 µL 1 M sodium carbonate. […] Data was analyzed in Microsoft Excel and GraphPad Prism programs.

Adenosine A1 receptor = target: T3, Adenosine A1 receptor (Homo sapiens, UniProt P30542); assay: A1 antagonist function (no method described); type: cell-based
T3 sequence (P30542 1-326): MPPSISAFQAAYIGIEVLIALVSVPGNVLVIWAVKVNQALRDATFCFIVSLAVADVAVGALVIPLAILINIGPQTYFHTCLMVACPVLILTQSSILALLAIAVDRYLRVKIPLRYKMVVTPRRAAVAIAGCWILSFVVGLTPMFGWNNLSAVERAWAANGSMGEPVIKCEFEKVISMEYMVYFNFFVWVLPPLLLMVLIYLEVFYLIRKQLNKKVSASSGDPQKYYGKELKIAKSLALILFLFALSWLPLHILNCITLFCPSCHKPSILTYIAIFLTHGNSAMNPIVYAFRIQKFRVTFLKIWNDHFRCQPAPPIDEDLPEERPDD

[3] = radioligand [3H]CGS21680, HEK293 membranes, room temperature 2 hours; read-out: Ki (nM) A2a binding

T1 sequence (P29274 whole entry): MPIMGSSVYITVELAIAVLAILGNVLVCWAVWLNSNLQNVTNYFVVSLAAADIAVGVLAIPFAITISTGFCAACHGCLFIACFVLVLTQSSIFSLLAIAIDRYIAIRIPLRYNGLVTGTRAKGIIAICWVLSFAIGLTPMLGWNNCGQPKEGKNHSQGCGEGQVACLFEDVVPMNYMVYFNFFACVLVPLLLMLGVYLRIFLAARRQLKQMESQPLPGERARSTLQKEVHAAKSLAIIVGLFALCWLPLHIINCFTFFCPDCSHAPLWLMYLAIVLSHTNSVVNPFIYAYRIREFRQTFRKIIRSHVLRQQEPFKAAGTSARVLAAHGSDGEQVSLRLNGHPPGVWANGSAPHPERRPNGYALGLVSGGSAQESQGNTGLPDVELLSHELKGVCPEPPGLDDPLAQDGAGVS
T2 sequence (P29274 whole entry): as above

| Compound | Ki [1, 3] [nM] | Ki [2] [nM] | Ki (Adenosine A1 receptor) [nM] | Ki ([1]; read-out: Ki (nM) A2a binding; radioligand [3H]CGS21680, HEK293 membranes, room temperature 2 hours) [nM] |
| --- | --- | --- | --- | --- |
| CN(C)CCOC(=O)c1c(N)nc(-c2ccsc2)c2c1-c1ccccc1C2=O [Compound 93] | 64.1 | 23.6 | 104 |  |
| Nc1nc(-c2ccccc2)c2c(n1)-c1ccccc1C2=O [Compound 10, 2-amino-4-phenyl-indeno[1,2-d]pyrimidin-5-one] |  |  | 1.2 |  |
| Nc1nc(-c2ccco2)c2c(n1)-c1cc(Br)ccc1C2=O [Compound 35] | 3.49 | 0.265 | 7.09 |  |
| CN(C)CCN(C)C(=O)c1c(N)nc(-c2ccco2)c2c1-c1ccccc1C2=O [Compound 77, 9H-indeno[2,1-c]pyridine-4-carboxylic acid, 3-amino-1-furan-2-yl-9-oxo-, (2-dimethylamino-ethyl)-methyl-amide] | 6.25 | 0.68 |  |  |
| Nc1nc(-c2ccco2)c2c(c1C(=O)O)-c1ccccc1C2=O [Compound 69] | 2260 | 90.2 | > 1000 |  |
| CCc1nc(N)c(C#N)c2c1C(=O)c1ccccc1-2 [Compound 85] | 508 |  |  |  |
| CN1CCN(Cc2cccc3c2C(=O)c2c(-c4ccccc4)nc(N)nc2-3)CC1 [Compound 50] | 80.1 | 11.3 | 94.2 |  |
| COC(=O)CN(C)Cc1cccc2c1C(=O)c1c(-c3ccccc3)nc(N)nc1-2 [Compound 56] | 25.7 | 6.81 | 25.8 |  |
| CN(C)CCCOC(=O)c1c(N)nc(-c2ccccc2)c2c1-c1ccccc1C2=O [Compound 87] | 98.9 | 39.5 | > 300 |  |
| CN(C)CCN(C)Cc1cccc2c1C(=O)c1c(-c3ccccc3)nc(N)nc1-2 [Compound 49] | 51.1 | 40.1 | 119 |  |
| CN(Cc1ccco1)Cc1cccc2c1C(=O)c1c(-c3ccccc3)nc(N)nc1-2 [Compound 62] | 58.4 |  |  |  |
| N#Cc1c(N)nc(-c2ncc[nH]2)c2c1-c1ccccc1C2=O [Compound 75] | 23.7 | 1.51 | 78.3 |  |
| N#Cc1c(N)nc(-c2ccsc2)c2c1-c1ccccc1C2=O [Compound 73] | 4.92 | 0.06 | 9.7 |  |
| Nc1nc(-c2ccccc2)c2c(c1C(=O)O)-c1ccccc1C2=O [Compound 65] | 575 | 245 | 163 |  |
| N#Cc1c(N)nc(-c2ccoc2)c2c1-c1ccccc1C2=O [Compound 66] | 4.21 | 0.069 | 15.6 |  |
| N#Cc1c(N)nc(-c2ccco2)c2c1-c1c(F)c(F)c(F)c(F)c1C2=O [Compound 79] | 8.03 | 12.5 | > 1000 |  |

| Compound | Ki [1, 3] [nM] | Ki [2] [nM] | Ki (Adenosine A1 receptor) [nM] | Ki ([1]; read-out: Ki (nM) A2a binding; radioligand [3H]CGS21680, HEK293 membranes, room temperature 2 hours) [nM] |
| --- | --- | --- | --- | --- |
| CN(C)CCOC(=O)c1c(N)nc(-c2ccccc2)c2c1-c1ccccc1C2=O [Compound 81, 9H-indeno[2,1-c]pyridine-4-carboxylic acid, 3-amino-1-phenyl-9-oxo-, 2-dimethylamino-ethyl ester] | 229 | 29 | 33.6 |  |
| C[C@H](O)[C@@H](O)c1cccc2c1C(=O)c1c(-c3ccccc3)nc(N)nc1-2 [Compound 32] |  | 0.634 | 9.89 | 3.55 |
| CC(=O)N1CCN(Cc2cccc3c2C(=O)c2c(-c4ccccc4)nc(N)nc2-3)CC1 [Compound 59] | 40.8 | 7.94 | 34.1 |  |
| Nc1nc(-c2ccccc2)c2c(n1)-c1cccc(CN3CCCC(CO)C3)c1C2=O (centres unmarked) [Compound 57] | 34 | 15.9 | 39.3 |  |
| CCOC(=O)C1CCCN(Cc2cccc3c2C(=O)c2c(-c4ccccc4)nc(N)nc2-3)C1 (centres unmarked) [Compound 55] | 32.8 | 5.84 | 19.9 |  |
| N#Cc1c(N)nc(-c2ccccc2)c2c1-c1ccccc1C2=O [Compound 64] | 13.1 | 0.138 | 4.61 |  |
| Nc1nc(-c2ccccc2)c2c(n1)-c1cccc(CN3CCOCC3)c1C2=O [Compound 51] | 36.8 | 3.26 | 32.9 |  |
| CCN(CC)CCNc1nc(-c2ccccc2)c2c(n1)-c1ccccc1C2=O [Compound 27] | 147 | 68.3 | > 1000 |  |
| CC(COC(=O)c1c(N)nc(-c2ccccc2)c2c1-c1ccccc1C2=O)CN(C)C (centres unmarked) [Compound 92] | 38.8 | 13.9 | 32.9 |  |
| CC(C)Cc1nc(N)c(C#N)c2c1C(=O)c1ccccc1-2 [Compound 86] | 244 | > 1000 | 39.3 |  |
| Nc1nc(-c2ccccc2)c2c(n1)-c1cccc(CN3CCCCC3)c1C2=O [Compound 53] | 64.2 | 14.2 | 40.8 |  |
| N#Cc1c(N)nc(-c2ccco2)c2c1-c1ccccc1C2=O [Compound 63, 9H-indeno[2,1-c]pyridine-4-carbonitrile, 3-amino-1-furan-2-yl-9-oxo-] | 0.59 |  | 0.18 |  |
| CCN(Cc1ccncc1)Cc1cccc2c1C(=O)c1c(-c3ccccc3)nc(N)nc1-2 [Compound 61] | 29.8 |  |  |  |
| CC(C)(C)OC(=O)NC1CCN(Cc2cccc3c2C(=O)c2c(-c4ccccc4)nc(N)nc2-3)CC1 [Compound 60] | 34.3 |  |  |  |
| CC(CN(C)C)NC(=O)c1c(N)nc(-c2ccco2)c2c1-c1ccccc1C2=O (centres unmarked) [Compound 78, 9H-indeno[2,1-c]pyridine-4-carboxylic acid, 3-aminol-furan-2-yl-9-oxo-, (2-dimethylamino-1-methyl-ethyl)-amide] | 17.6 | 1.58 |  |  |

Second part, led by results:

| Ki [1, 3] [nM] | Ki [2] [nM] | Ki (Adenosine A1 receptor) [nM] | Compound | Ki ([1]; read-out: Ki (nM) A2a binding; radioligand [3H]CGS21680, HEK293 membranes, room temperature 2 hours) [nM] |
| --- | --- | --- | --- | --- |
| 3.9 | 4.56 | 16.4 | Nc1nc(-c2ccncc2)c2c(n1)-c1ccccc1C2=O [Compound 6] |  |
| 31.5 | 10.2 | 4.05 | COc1ccc(-c2nc(N)nc3c2C(=O)c2ccccc2-3)cn1 [Compound 30] |  |
| 48.9 | 3.53 | 5.86 | Nc1nc(-c2ccc(F)c(F)c2)c2c(n1)-c1ccccc1C2=O [Compound 28] |  |
| 0.175 | 0.34 | 0.021 | C[C@H](O)[C@@H](O)c1cccc2c1-c1nc(N)nc(-c3ccccc3)c1C2=O [Compound 33] |  |
|  | 0.49 | 6.89 | Nc1nc(-c2nccs2)c2c(n1)-c1ccccc1C2=O [Compound 7] |  |
| 8.85 | 1.63 | 2.47 | COc1cccc(-c2nc(N)nc3c2C(=O)c2ccccc2-3)c1 [Compound 11] |  |
| 20.9 | 1.42 | 4.27 | Nc1nc(-c2cc(F)cc(F)c2)c2c(n1)-c1ccccc1C2=O [Compound 29] |  |
| 58.4 | 5.5 | 11.6 | Nc1nc(-c2ccc(Cl)cc2)c2c(n1)-c1ccccc1C2=O [Compound 8] |  |
| 4.01 | 0.005 | 0.016 | Cc1ccc(-c2nc(N)nc3c2C(=O)c2ccccc2-3)o1 [Compound 45, 2-amino-4-(5-methyl-furan-2-yl)-indeno[1,2-d]pyrimidin-5-one] |  |
| 111 | 20.9 | 21.6 | CN(C)C=Nc1nc(-c2cccc(F)c2)c2c(n1)-c1ccccc1C2=O [Compound 19] |  |
| 4.92 | 0.926 | 2.31 | Nc1nc(-c2cccc(F)c2)c2c(n1)-c1ccccc1C2=O [Compound 39] |  |
| 39.9 | 3.68 | 2.34 | Nc1nc(Nc2ccccc2)c2c(n1)-c1ccccc1C2=O [Compound 43] |  |
| 20.8 | 4.85 | 7.69 | Nc1nc(-c2cccc([N+](=O)[O-])c2)c2c(n1)-c1ccccc1C2=O [Compound 9] |  |
| 2.03 | 6.87 | 5.32 | COc1ccc(-c2nc(N)nc3c2C(=O)c2ccccc2-3)cc1 [Compound 2] |  |
| 560 |  |  | CCCn1cc(-c2nc(N)nc3c2C(=O)c2ccccc2-3)ccc1=O [Compound 34] |  |
